The values that follow come from patent US20230157308A1, “PERMEABILIZED MICROBIAL CELL CATALYSTS” (DANMARKS TEKNISKE UNIVERSITET, priority 2020, published 2023).

The subject of assay [1] is S. thermophilus CS1980 cells. As to the kind of experiment: Lactose hydrolysis by permeabilized S. thermophilus CS1980 cells. The class given is cell-based, Streptococcus thermophilus. Conditions: for effectiveness in cell permeabilization: 100 mg/L agent, 100 mg/l S. thermophilus cells, POM buffer. Here is the method:
S. thermophilus strains were grown in 500-ml Erlenmeyer flasks containing 200 mL of medium at 37° C. for 16 h without agitation. 2 mL of an overnight culture was used as inoculum. Cells were collected by centrifugation at 10,000×g for 10 min at 4° C., washed once with sterile POM buffer (50 mM K2HPO4/KH2PO4, 1 mM MgCl2, pH 7.4) and finally re-suspended in POM buffer to an optical density (OD600) of 0.3, corresponding to approximately 0.1 g/L (dry weight basis). For permeabilization, cell suspensions were dispensed into sterile tubes (1 mL per tube) and centrifuged in a microcentrifuge at 10,000×g for 5 min at 4° C. After decanting the supernatants, cell pellets were resuspended in 1 mL POM buffer containing different concentrations (10 mg/l and 100 mg/l) of monolaurin (Toronto Research Chemicals, Toronto, Canada), and were maintained for 10 min at 28° C. Non permeabilized cells in POM buffer were used as control. 100 mg/l of monomyristin was also tested as premeabilization agent. The cells were resuspended in POM buffered lactose (50 g/L) solution. The hydrolysis was carried out at 50° C. for 2 h. The concentration of lactose, glucose and galactose was determined on an Ultimate 3000 high-performance liquid chromatography (HPLC) system (Dionex) equipped with an Aminex HPX-87H column (Bio-Rad) and a Shodex RI-101 detector (Showa Denko K.K.). The column oven temperature was set to 60° C., and the mobile phase consisted of 5 mM H2SO4. The flow rate used was 0.5 mL/min.

Assay [2] deals with S. thermophilus CS1980. As to the kind of experiment: Lactose hydrolysis: monolaurin- versus ethanol-permeabilized cells. Type of assay: cell-based, Streptococcus thermophilus. Conditions: for stability of the whole-cell catalyst: 100 μg/ml monolaurin or 45% (v/v) ethanol, 10 min at 28° C. Here is the method: S. thermophilus CS1980 was permeabilized for 10 minutes at 28° C. using (i) 100 μg/ml monolaurin in POM buffer or (ii) 45% (v/v) ethanol for 10 minutes, or (iii) not permeabilized (control). Hydrolysis of lactose in POM buffer (50 g/l lactose) at 50° C. was carried out at a cell concentration of approximately 100 mg/l.

Assay [3] has as its system Lactococcus lactis biovar. diacetylactis RD1M5 cells. As to the kind of experiment: Acetoin production from pyruvate by permeabilized RD1M5 cells. The class given is cell-based. Particulars: 100 mg/L monolaurin, 20 min at 30° C.; 700 mg/L cells, 100 mM pyruvate, 1 h. Here is the method:
Lactococcus lactis biovar. diacetylactis RD1M5 was permeabilized as described in example 1.2, using 100 mg/L monolaurin for 20 min at 30° C. 700 mg/L cells were suspended in POM buffer solution with 100 mM pyruvate. After 1 h, the cells were removed and the supernatant was used to quantify the acetoin concentration. Quantification of lactose, lactate, acetoin, and citrate were carried out using an Ultimate high-performance liquid chromatography system equipped with a Aminex HPX-87H column (300×7.8 mm column) (Bio-Rad, Hercules, USA) and a Shodex RI-101 refractive index detector (Showa Denko K.K., Tokyo, Japan). The mobile phase was 5 mM H2SO4 with a flow rate of 0.5 mL/min and the column oven temperature was maintained at 60° C.

For assay [4], the system named is S. thermophilus CS1980. As to the kind of experiment: Permeabilization of S. thermophilus CS1980 at different temperatures. Type of assay: cell-based, Streptococcus thermophilus. Particulars: permeabilization temperatures 20-50° C. Here is the method: […] Controls are prepared without addition of monolaurin in the permeabilization step. Hydrolysis of lactose by monolaurin-treated cells is carried out in a POM buffered solution.

As for `CCCCCCCCCCCCCC(=O)OCC(O)CO` (stereo not drawn) [Monomyristin, monomyristin], in assay [1], the “effectiveness in cell permeabilization” value was “same effectiveness in cell permeabilization as monolaurin”.
On to `CCO` [ethanol, reference compound], for which the “stability of the whole-cell catalyst” value in the assay with S. thermophilus CS1980 [2] is on record as “compromised the stability of the whole-cell catalyst”.
Regarding `CCCCCCCCCCCC(=O)OCC(O)CO` (stereo not drawn) [monolaurin], the “acetoin produced from pyruvate compared to non-treated cells” value in assay [3] is given as “much higher concentrations of acetoin”. Further, in the assay on S. thermophilus CS1980 [4], the “efficiency of permeabilization over temperature range” value is “equally efficient”. The “stability of the whole-cell catalyst” value in the assay with S. thermophilus CS1980 [2] was “higher stability”. Moreover, the “lactose conversion by permeabilized cells” value in the assay on S. thermophilus CS1980 [2] (permeabilized 10 min at 28° C., 100 μg/ml monolaurin, 50 g/l lactose, 50° C., about 100 mg/l cells) is listed as “perform better than the control as well as the ethanol-permeabilized cells”. For the same compound, the “effectiveness in cell permeabilization” value in assay [1] is on record as “efficiently permeabilizes the cells”. Further, in assay [1] (cells permeabilized 10 min at 28° C., 50 g/L lactose, 2 hours at 50° C., 100 mg/L cells (dry weight)), the “lactose hydrolyzed by permeabilized cells” value amounted to 55%. Also, in assay [1] (too low monolaurin concentration (10 mg/l tested), 50 g/L lactose, 50° C.), the “hydrolysis by cells treated with too low monolaurin concentration” value was “neglectable”.
